Broadly, the IC50 is the concentration needed to halve the response being measured.

Starred links: 1 amine or outer side, 2 acyl side, 3 side chain; linkers in the order of their positions; H or OH if unused. Non-standard residues stand in square brackets, D forms with d. Residues, ends and D or L forms follow the SMILES beside them. *: point of attachment. X5 = O=C(O)CN1CCN(CC(=O)O)CCN([C@@H](CCC(=O)*)C(=O)O)CCN(CC(=O)O)CC1; X2 = O=C(O)CN1CCN(CC(=O)O)CCN([C@H](CCC(=O)*)C(=O)O)CCN(CC(=O)O)CC1; Benzoyl(4-SiFtBu2) = CC(C)(C)[Si](F)(c1ccc(C(=O)*)cc1)C(C)(C)C; DOTA = O=C(O)CN1CCN(CC(=O)O)CCN(CC(=O)*)CCN(CC(=O)O)CC1; NODAGA = O=C(O)CN1CCN(CC(=O)O)CCN(C(CCC(=O)*)C(=O)O)CC1; NOTA = O=C(O)CN1CCN(CC(=O)O)CCN(CC(=O)*)CC1; d(γGlu) = O=C(O)[C@@H](CCC(=O)[*:2])N[*:1]; 1Nal = N[C@@H](Cc1cccc2ccccc12)C(=O)O; NMeNle = CCCC[C@H](NC)C(=O)O; PEG4 = NCCOCCOCCOCCOCCC(=O)O; Nle = CCCC[C@H](N)C(=O)O; Dap = NC[C@H](N)C(=O)O

The first test deals with T1, CCK-2R (Rattus norvegicus, UniProt P30553).
T1 construct: The CCK-2R expressing rat pancreatic tumor cells AR4-2J; host or cells: AR4-2J rat pancreatic tumor cells
T1 sequence (P30553 1-452): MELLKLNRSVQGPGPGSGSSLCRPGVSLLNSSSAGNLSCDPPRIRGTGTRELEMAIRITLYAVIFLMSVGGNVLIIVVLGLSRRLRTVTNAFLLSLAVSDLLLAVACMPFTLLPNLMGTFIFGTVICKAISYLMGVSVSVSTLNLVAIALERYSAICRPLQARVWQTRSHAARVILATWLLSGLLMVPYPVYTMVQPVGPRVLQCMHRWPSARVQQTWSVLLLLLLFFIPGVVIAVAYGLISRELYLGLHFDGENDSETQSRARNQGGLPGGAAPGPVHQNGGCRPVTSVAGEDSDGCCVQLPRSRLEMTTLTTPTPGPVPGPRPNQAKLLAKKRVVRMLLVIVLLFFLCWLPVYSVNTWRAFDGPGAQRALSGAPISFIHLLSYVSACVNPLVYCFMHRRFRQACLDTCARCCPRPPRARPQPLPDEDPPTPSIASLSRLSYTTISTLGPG
In words: Determination of IC50: CCK-2R affinity on AR4-2J cells, competition with [^177Lu]Lu-DOTA-PP-F11N. It counts as binding.
Conditions: not given
The method, then: AR4-2J cells were harvested 24 ± 2 h before the experiment and seeded in 24-well plates (2.0 × 10^5 cells in 1 mL/well). After removal of the nutrient medium (RPMI 1640, 5 mM L-Gln, 5 mL non-essential amino acids (100×), 10% FCS), the cells were washed once with 500 µL PBS. Thereafter, 200 µL nutrient medium (5% BSA, v/v) were added. Next, 25 µL per well of solutions containing either nutrient medium (5% BSA, v/v) as control or the respective compound in increasing concentration (10^-10 - 10^-4 M), were added with subsequent addition of 25 µL [^177Lu]Lu-DOTA-PP-F11N (0.3 pmol/well).
All experiments were performed in triplicate for each concentration. After 3 h incubation at 37 °C, the experiment was terminated by removal of the medium and consecutive rinsing with 300 µL PBS. The media of both steps were combined in one fraction and represent the amount of free radiolabeled reference. Afterwards, the cells were lysed with 300 µL of 1 M NaOH for at least 15 min and united with the 300 µL NaOH of the following washing step. Quantification of bound and free radiolabeled reference was accomplished in a γ-counter. IC50 determination for each conjugate was repeated twice.
Take `CCCC[C@H](NC(=O)[C@H](Cc1c[nH]c2ccccc12)NC(=O)CNC(=O)[C@H](Cc1ccc(O)cc1)NC(=O)[C@H](C)NC(=O)CC[C@@H](N)C(=O)O)C(=O)N[C@@H](CC(=O)O)C(=O)N[C@@H](CNC(=O)c1ccc([Si](F)(C(C)(C)C)C(C)(C)C)cc1)C(N)=O` [CCK-48, H-γ-glu-Ala-Tyr-Gly-Trp-Nle-Asp-Dap(SiFA)-NH2] ({d(γGlu)}-AYGW[Nle]D[Dap](Benzoyl(4-SiFtBu2))-NH2): the IC50 was greater than 10000 nM.
In the case of `CCCC[C@H](NC(=O)[C@H](Cc1c[nH]c2ccccc12)NC(=O)CNC(=O)[C@H](Cc1ccc(O)cc1)NC(=O)[C@H](C)NC(=O)[C@@H](CCC(=O)O)NC(=O)[C@@H](CCC(=O)O)NC(=O)[C@@H](CCC(=O)O)NC(=O)[C@@H](CCC(=O)O)NC(=O)[C@@H](CCC(=O)O)NC(=O)[C@@H](CCC(=O)O)NC(=O)CN1CCN(CC(=O)O)CCN(CC(=O)O)CCN(CC(=O)O)CC1)C(=O)N[C@@H](CC(=O)O)C(=O)N[C@@H](Cc1ccccc1)C(N)=O` [DOTA-PP-F11N, DOTA-glu^1-glu^2-glu^3-glu^4-glu^5-glu^6-Ala^7-Tyr^8-Gly^9-Trp^10-Nle^11-Asp^12-Phe^13-NH2, reference compound], the IC50 was found to be 12.8 ± 2.8 nM.

Still in this test, the particulars now being: AR4-2J cells; [^19F]AlF-complexated; read-out: IC50 [nM] (n = 3), ^natAlF-labeled.
For the compound `CCCC[C@@H](C(=O)N[C@@H](CC(=O)O)C(=O)N[C@@H](Cc1cccc2ccccc12)C(N)=O)N(C)C(=O)[C@H](Cc1c[nH]c2ccccc12)NC(=O)CCOCCOCCOCCOCCNC(=O)CC[C@@H](NC(=O)CN1CCN(CC(=O)O)CCN(CC(=O)O)CC1)C(=O)O` [NOTA-CCK-66, NOTA-γ-glu-(PEG)3-Trp-(N-Me)Nle-Asp-1-Nal-NH2] ({NOTA-d(γGlu)-PEG4}-W[NMeNle]D[1Nal]-NH2), the IC50 is 10.4 ± 0.9 nM.

The test is the same for the next values; noted with them: AR4-2J cells; ^natGa-labeled; read-out: IC50 [nM] (n = 3), ^natGa-labeled.
Take `CCCC[C@@H](C(=O)N[C@@H](CC(=O)O)C(=O)N[C@@H](Cc1cccc2ccccc12)C(N)=O)N(C)C(=O)[C@H](Cc1c[nH]c2ccccc12)NC(=O)CCOCCOCCOCCOCCNC(=O)CC[C@@H](NC(=O)CC[C@H](C(=O)O)N1CCN(CC(=O)O)CCN(CC(=O)O)CCN(CC(=O)O)CC1)C(=O)O` [(R)-DOTAGA-CCK-66, (R)-DOTAGA-γ-glu-(PEG)3-Trp-(N-Me)Nle-Asp-1-Nal-NH2] ({X2-d(γGlu)-PEG4}-W[NMeNle]D[1Nal]-NH2): the IC50 came to 16 ± 2.1 nM.
Take `CCCC[C@@H](C(=O)N[C@@H](CC(=O)O)C(=O)N[C@@H](Cc1cccc2ccccc12)C(N)=O)N(C)C(=O)[C@H](Cc1c[nH]c2ccccc12)NC(=O)CCOCCOCCOCCOCCNC(=O)CC[C@@H](NC(=O)CC[C@@H](C(=O)O)N1CCN(CC(=O)O)CCN(CC(=O)O)CCN(CC(=O)O)CC1)C(=O)O` [(S)-DOTAGA-CCK-66, (S)-DOTAGA-γ-glu-(PEG)3-Trp-(N-Me)Nle-Asp-1-Nal-NH2] ({X5-d(γGlu)-PEG4}-W[NMeNle]D[1Nal]-NH2): the IC50 is 17.9 ± 2.7 nM.
As to `CCCC[C@@H](C(=O)N[C@@H](CC(=O)O)C(=O)N[C@@H](Cc1cccc2ccccc12)C(N)=O)N(C)C(=O)[C@H](Cc1c[nH]c2ccccc12)NC(=O)CCOCCOCCOCCOCCNC(=O)CC[C@@H](NC(=O)CCC(C(=O)O)N1CCN(CC(=O)O)CCN(CC(=O)O)CC1)C(=O)O` (stereo partly drawn) [NODAGA-CCK-66, NODAGA-γ-glu-(PEG)3-Trp-(N-Me)Nle-Asp-1-Nal-NH2] ({NODAGA-d(γGlu)-PEG4}-W[NMeNle]D[1Nal]-NH2), the half-maximal inhibitory concentration (IC50) turned out to be 4.9 ± 0.7 nM.
On the same count and under the same terms, as for `CCCC[C@@H](C(=O)N[C@@H](CC(=O)O)C(=O)N[C@@H](Cc1cccc2ccccc12)C(N)=O)N(C)C(=O)[C@H](Cc1c[nH]c2ccccc12)NC(=O)CCOCCOCCOCCOCCNC(=O)CC[C@@H](NC(=O)CN1CCN(CC(=O)O)CCN(CC(=O)O)CC1)C(=O)O` [NOTA-CCK-66, NOTA-γ-glu-(PEG)3-Trp-(N-Me)Nle-Asp-1-Nal-NH2] ({NOTA-d(γGlu)-PEG4}-W[NMeNle]D[1Nal]-NH2), the figure is 9.7 ± 1 nM.

The same test, now with this note: AR4-2J cells; ^natLu-labeled; read-out: IC50 [nM] (n = 3), ^natLu-labeled.
`CCCC[C@@H](C(=O)N[C@@H](CC(=O)O)C(=O)N[C@@H](Cc1cccc2ccccc12)C(N)=O)N(C)C(=O)[C@H](Cc1c[nH]c2ccccc12)NC(=O)CNC(=O)CNC(=O)CNC(=O)CNC(=O)CN1CCN(CC(=O)O)CCN(CC(=O)O)CCN(CC(=O)O)CC1` [DOTA-CCK-55, DOTA-(Gly)4-Trp-(N-Me)Nle-Asp-1-Nal-NH2] ({DOTA}-GGGGW[NMeNle]D[1Nal]-NH2): the IC50 is 8.5 ± 1.2 nM.
On to `CCCC[C@@H](C(=O)N[C@@H](CC(=O)O)C(=O)N[C@@H](Cc1cccc2ccccc12)C(N)=O)N(C)C(=O)[C@H](Cc1c[nH]c2ccccc12)NC(=O)CNC(=O)CN1CCN(CC(=O)O)CCN(CC(=O)O)CCN(CC(=O)O)CC1` [DOTA-CCK-58, DOTA-Gly-Trp-(N-Me)Nle-Asp-1-Nal-NH2] ({DOTA}-GW[NMeNle]D[1Nal]-NH2), for which the IC50 came to 98.9 ± 8.4 nM.
Same read-out and setting: with `CCCC[C@@H](C(=O)N[C@@H](CC(=O)O)C(=O)N[C@@H](Cc1cccc2ccccc12)C(N)=O)N(C)C(=O)[C@H](Cc1c[nH]c2ccccc12)NC(=O)CNC(=O)CNC(=O)[C@H](C)NC(=O)CNC(=O)CN1CCN(CC(=O)O)CCN(CC(=O)O)CCN(CC(=O)O)CC1` [DOTA-CCK-61, DOTA-Gly-Ala-(Gly)2-Trp-(N-Me)Nle-Asp-1-Nal-NH2] ({DOTA}-GAGGW[NMeNle]D[1Nal]-NH2) the figure was 9.7 ± 1.7 nM.

The record behind these values is EP4631959A2, “NOVEL MINIGASTRIN-DERIVED CHOLECYSTOKININ 2 RECEPTOR BINDING MOLECULES FOR IMAGING AND TARGETED RADIOTHERAPY” (priority 2022, dated 2024).
